The values below come from patent publication US20190300824A1, “BACTERIAL SPORE COMPOSITIONS FOR […]” (priority 2014, published 2019).

The test system of the assay is Eimeria maxima and Clostridium perfringens. The format is in vivo, Cobb 500 Chicks (Gallus gallus domesticus). The settings on record: in words.

Bridge positions count the residues as written; N and C are the ends. Square brackets hold non-standard residues; d marks the D form. Peptide text beside a SMILES is read from it. * marks the point of attachment. Ileψ(thiazoline)Cys = CC[C@H](C)[C@H](N)C1=N[C@H](C(=O)*)CS1; dOrn = NCCC[C@@H](N)C(=O)O

Regarding `CC[C@H](C)[C@H](N)C1=N[C@H](C(=O)N[C@@H](CC(C)C)C(=O)N[C@H](CCC(=O)O)C(=O)N[C@H](C(=O)N[C@H]2CCCCNC(=O)[C@H](CC(N)=O)NC(=O)[C@@H](CC(=O)O)NC(=O)[C@H](Cc3cnc[nH]3)NC(=O)[C@@H](Cc3ccccc3)NC(=O)[C@H]([C@@H](C)CC)NC(=O)[C@@H](CCCN)NC2=O)[C@@H](C)CC)CS1` [Treatment Group 5, Bacitracin] ({Ileψ(thiazoline)Cys}-L[dE]IK[dOrn]I[dF]H[dD]N; lactam 4-C), the “weight gain over the infected negative control” value is listed as “significant increase in weight gain”.
